In patent US20250122189A1, “FGFR4 INHIBITOR ACID SALT, PREPARATION METHOD THEREFOR AND USE THEREOF” (Abbisko Therapeutics Co., Ltd., priority 2021, published 2025):
Structures can show the parent of a compound that is named as a salt.

Key:
[1] = Stability test under high temperature and accelerated conditions (chemical purity); type: physicochemical
Excerpt: The p-toluenesulfonate salt of the compound of formula (I) (Form A) and the compound of formula (I) in free form were subjected to conditions of high temperature and accelerated experiments for stability test, and the chemical purity was used as an evaluation index to evaluate the stability of the p-toluenesulfonate salt of the compound of formula (I) (Form A) and the compound of formula (I) in free form.

[2] = Solubility in water; type: physicochemical; conditions: stirred 24 hrs at room temperature
Method: 2 mg of the p-toluenesulfonate salt of the compound of formula (I) (Form A) and 2 mg of the compound of formula (I) in free form were separately placed in a 2 mL glass bottle, 0.4 mL of water was added into the glass bottles separately, the two mixtures were each stirred for 24 hrs on a magnetic stirrer at room temperature and then centrifuged, and the content measurement was carried out by using a liquid phase.

[3] = In vivo pharmacokinetic experiment in monkeys; conditions: Monkey, 200 mpk (based on the compound in free form); 200 mg/kg
Excerpt: The p-toluenesulfonate salt of the compound of formula (I) (Form A) and the compound of formula (I) in free form were each subjected to PK experiments in monkeys, and the administration dose was 200 mpk (based on the compound in free form).

[4] = Solubility in physiological vehicle (25% PEG300/5% Solutol HS15/70% water); type: physicochemical; conditions: vehicle 25% PEG300/5% Solutol HS15/70% water (v/v/v), room temperature, various time points (FIG. 7)
Method: 80 mg of the p-toluenesulfonate salt of the compound of formula (I) (Form A) and 80 mg of the compound of formula (I) in free form were separately placed in a 4 mL glass bottle, 2 mL of vehicle (25% PEG300/5% Solutol HS15/70% water) (v/v/v) was added into the glass bottles separately, the two mixtures were each stirred on a magnetic stirrer at room temperature, samples were taken at various time points and centrifuged, and the content measurement was carried out by using a liquid phase.

[5] = Hygroscopic behavior test (dynamic vapor sorption); type: physicochemical; conditions: DVS, 25° C., relative humidity 0% to 90%
Excerpt: The experimental method of characterizing the crystalline acidic salts of the compound of formula (I) using dynamic vapor sorption (DVS) is as follows: a small amount of crystalline acidic salt powder of the compound of formula (I) was placed in a precision sample pan that came with the instrument; after the sample was loaded, the aluminum pan was sent into the instrument for analysis. In the present patent, the instruments used for dynamic vapor sorption were all the DVS Intrinsic model, and the experimental parameters were set as follows: nitrogen was set as carrier gas, the constant temperature was set to 25° C., the rate of mass percentage change over a unit of time (dm/dt)=0.01%/min was used as a criterion for determining if an equilibrium is reached, and the program humidity change cycle was set as follows: the initial relative humidity was 0%, the relative humidity was 90% at the end of the cycle, 2 cycles were set, and each 10% R.H. change was a step.
The hygroscopic weight gains of the p-toluenesulfonate salt of the compound of formula (I) (Form A) in various relative humidity conditions (hygroscopic weight gain/pre-hygroscopic weight*100%) were measured according to the dynamic vapor sorption method to assess the hygroscopicity of the p-toluenesulfonate salt of the compound of formula (I) (Form A).

| SMILES | Chemical stability (% initial) ([1]; 40° C./75% RH, 3 d) | Chemical stability (% initial) ([1]; 40° C./75% RH, 7 d) | Chemical stability (% initial) ([1]; 40° C./75% RH, 14 d) | Chemical stability (% initial) ([1]; 60° C., 3 d) | Chemical stability (% initial) ([1]; 60° C., 7 d) | Chemical stability (% initial) ([1]; 60° C., 14 d) | Solubility [2] [µg/mL] | AUC [3] [ng·h/mL] | solubility compared with the compound of formula (I) in free form [4] | weight change along with the increase of relative humidity (hygroscopic weight gain) [5] |
| --- | --- | --- | --- | --- | --- | --- | --- | --- | --- | --- |
| C=CC(=O)N[C@H]1CCOC[C@H]1Nc1ncc2cc(-c3c(F)c(OC)cc(OC)c3F)nc(N3CC(C)(OC)C3)c2n1 [Compound of formula (I) in free form, N-((3S,4S)-3-((6-(2,6-difluoro-3,5-dimethoxyphenyl)-8-(3-methoxy-3-methylazetidin-1-yl)pyrido[3,4-d]pyrimidin-2-yl)amino)tetrahydro-2H-pyran-4-yl)acrylamide] | 99.9 | 100.0 | 100.0 | 100.1 | 100.1 | 100.1 | 25.6 | 9952 | – | – |
| C=CC(=O)N[C@H]1CCOC[C@H]1Nc1ncc2cc(-c3c(F)c(OC)cc(OC)c3F)nc(N3CC(C)(OC)C3)c2n1 [p-toluenesulfonate salt of the compound of formula (I) (Form] | 100.2 | 100.1 | 100.0 | 100.3 | 99.8 | 99.8 | 1370 | 124860 | significantly higher | no more than 2% |
